Converted amounts (≈) assume the structure as drawn. Like-named read-outs stand apart in the source and are kept apart here.
Legend:
[1] = In vitro release in fed state simulated intestinal fluid (FeSSIF), Example 1, FIG. 3; format: physicochemical; settings: 37° C., loaded at 1400 μg/mL DHM, 360 minute timepoint
Experimental: (§1) Release Kinetics in Vitro: Simulated gastric fluid (FaSSGF) and intestinal fluids (FaSSIF and FeSSIF) are prepared according to the manufacturer's instructions. Dissolution tests are performed with spray dried DHM-containing powders or tablets with the appropriate controls. Release under Gastric Conditions: DHM-containing spray dried powder samples are suspended in prewarmed FaSSGF (37° C.) to achieve a drug (DHM) concentration of roughly 10-100× the previously determined equilibrium solubility in the FaSSGF fluid (e.g., 75 μg/mL) by pipetting up and down vigorously multiple times. The samples are incubated for the duration of the study (e.g., 30 min) at 37° C. […] The samples are then diluted as appropriate to fall within the detection range and analyzed by high-performance liquid chromatography (HPLC), with the mobile phase as 80:20 H2O: acetonitrile (each with 0.05% trifluoroacetic acid), and with detection with UV-Vis at 290 nm. The concentration of DHM is then calculated based on a calibration curve. […] The samples are then diluted as appropriate to fall within the detection range and analyzed by HPLC, with the mobile phase as 80:20 H2O: acetonitrile (each with 0.05% trifluoroacetic acid), and with detection with UV-Vis at 290 nm. The concentration of DHM is then calculated based on a calibration curve. […]

[2] = reference [17]; cited from earlier work
[3] = In vitro release in FeSSIF with 1% v/v Tween 20 (Polysorbate 20), Example 2, FIG. 4; format: physicochemical; settings: FeSSIF + 1% v/v Tween 20, 37° C.
Experimental: as §1

[4] = low solubility and permeability; cited from earlier work
[5] = Equilibrium solubility of crystalline DHM in simulated intestinal fluids (FeSSIF, FaSSIF); format: physicochemical; settings: thermodynamic from solid

SMILES: O=C1c2c(O)cc(O)cc2O[C@H](c2cc(O)c(O)c(O)c2)[C@H]1O [DHM, dihydromyricetin]
- dissolved DHM concentration at completion of the release study [1]: approximately reached its previously determined equilibrium concentration
- oral bioavailability [2]: less than 5%
- effect of Tween 20 (Polysorbate 20) surfactant on solubility of DHM [3]: increased
- BCS class [4]: BCS class IV
- solubility thermodynamic ([5]; Fasted State Simulated Intestinal Fluid (FaSSIF), pH 6.5, fassif, fasted state simulated intestinal fluid, pH 6.5, read-out: equilibrium solubility in FaSSIF): ~50 µg/mL (≈ 156 µM)
- solubility thermodynamic ([5]; Fed State Simulated Intestinal Fluid (FeSSIF), pH 5, fessif, fed state simulated intestinal fluid, pH 5.0, read-out: equilibrium solubility in FeSSIF): ~140 µg/mL (≈ 437 µM)
